Values of other authors, collected in patent publication US9533050B2, “Vaginal ring including meloxicam and an agent for modulating the release of the active principle, which can be used as a continuous-use contraceptive in women” (LABORATORIOS ANDROMACO S.A., priority 2011, dated 2017).
Blank lines part the entries; values can stand above or below the compound they belong to.

Assays:
[1] = system: follicular rupture; conditions: 25 mg oral once daily for 9 days
[2] = system: ovulation; conditions: women
[3] = 15 mg tablets orally, older women

Structure (SMILES): CS(=O)(=O)c1ccc(C2=C(c3ccccc3)C(=O)OC2)cc1 [rofecoxib]
- inhibition of ovulation [1]: not sufficient to inhibit ovulation
- women with delay in the late follicular rupture [1]: 4 of the 6

- maximum plasma concentrations (7.5 mg orally, tablets): 1.05 µg/mL
- time of maximum plasma concentration (7.5 mg orally, tablets): 4.9 h
- plasma concentrations [3]: 3200 ng/mL
- time of plasma concentration [3]: 6 h
Structure (SMILES): Cc1cnc(NC(=O)C2=C(O)c3ccccc3S(=O)(=O)N2C)s1 [meloxicam]

Structure (SMILES): COc1ccc2c(c1)c(CC(=O)O)c(C)n2C(=O)c1ccc(Cl)cc1 [Indomethacin, indomethacin]
- delay of ovulation [2]: 2 to 12 days
